5 compounds from US11963953B2, “Deuterated compounds for restoring mutant p53 function” (PMV Pharmaceuticals, Inc., priority 2022, dated 2024) can be followed below.

Broadly, the half-life is the time needed for the level to fall by half in the phase considered.

The target of one series is T1, p53 Y220C (Homo sapiens, UniProt P04637, Y220C).
T1 construct: made in house; host or cells: E. coli
The series can be described thus: In vitro DNA binding activity assay (HTRF / TR-FRET) of recombinant His-tagged p53 Y220C DNA binding domain with biotin-labeled consensus DNA. It counts as biochemical. To be noted: concentration required to increase DNA binding activity of p53 Y220C by 50%. Here is the method: The ability of a compound of the disclosure to stabilize p53 Y220C and increase the DNA binding activity of p53 Y220C was measured by a homogeneous time-resolved fluorescence (HTRF) assay. Recombinant His-tagged p53 Y220C used in the HTRF assay was expressed in the bacterium E. coli. The recombinant protein was a truncation mutant containing only amino acids 94-312 of p53, which encompassed the DNA binding domain (DBD) of p53 (SEQ ID NO.: 1). The His-tagged p53 Y220C was tested for DNA binding ability with a consensus sequence of DNA (DNA duplex with a sequence of 5 ¢-[…]-3 ¢; SEQ ID NO.: 2). SEQ ID NO.: 2 was then conjugated with a biotin label and used in the activity assay.
The binding of the recombinant His-tagged p53 Y220C protein and the biotin-labeled consensus DNA was measured using fluorescence resonance energy transfer (FRET). For the FRET assay, the binding between the p53 mutant and the DNA sequence was measured by detecting the fluorescence of the interaction between an anti-His antibody conjugated to allophycocyanin (APC) and streptavidin conjugated to europium to detect the biotin-labeled DNA.
The test compounds were prepared as 4.5 mM stock solutions in dimethyl sulfoxide (DMSO). The compounds of the disclosure were used to test the stabilization of p53 Y220C and increase in DNA binding activity of p53 Y220C. The stock solutions were then serially diluted 3-fold in DMSO, and 1.2 μL of the diluted solutions was added to each well of a 384-well polypropylene black plate. 30 μL of a 181 nM solution of the recombinant His-tagged p53 Y220C protein and 12.1 nM of APC conjugated anti-His tag antibody in ice-cold Assay Buffer 1 (50 mM Tris-HCl, pH 7.4; 75 mM KCl; 0.75 mM DTT; and 0.2 mg/mL bovine serum albumin (BSA) was added to each well containing the test compounds.
As a background control, […] of Assay Buffer 1 containing 12.1 nM of APC anti-His antibody was also added into a second set of serially-diluted compound plates. […] The assay signals were monitored by reading excitation at 340 nm, and emission fluorescence at 615 nm and 665 nm on a plate reader.
Normalized time-resolved fluorescence resonance energy transfer (TR-FRET) assay signal (Rn) was calculated by the formula: Rn=[(A-Ba-CD)/(D-Bd)](Dc-Bd) where A was the fluorescence intensity of the sample at 665 nm; D was the fluorescence intensity of the sample at 615 nm; Ba and Bd were plate background readings at 665 nm and 615 nm, respectively; and Dc was the fluorescence intensity of 1.8 nM Eu-SA in the assay buffer at 615 nm.
The cross-talk factor (C) was determined by the following formula: C═(Ac—Ba)/(Dc-Bd) where Ac was the fluorescence intensity of 1.8 nM Eu-labeled anti-FLAG antibody in the assay buffer at 665 nm. […] The SC150 values were calculated using either Prism™ or ActivityBase™.

The nature of series [1]: Pharmacokinetic analysis after single oral administration to male cynomolgus monkeys, with plasma levels of parent and glucuronidation metabolites. The settings on record: cynomolgus monkey, in vivo, 25 mg/kg. As for the experimental part:
The pharmacokinetics (PK) of a deuterated compound and a comparator compound were measured following a 2-phase single oral (PO) administration to male cynomolgus monkeys. Compound and metabolite levels were monitored for up to 48 hours following dosing.
A group of 3 non-naïve male cynomolgus monkeys were used in this 2-phase study with a 5-day washout period between each phase. Animals in Phases 1 or 2 were administered the compounds by single oral administration at 25 mg/kg. The vehicle used for the oral studies was 2% (w/v) hydroxypropylcellulose (HPC) w/v in water [“vehicle” ]. Administration was PO in fasted (overnight) animals. […] The body weights of the animals were in the range from 2.28 to 3.32 kg for males on the dosing day of Phase 1. All animals received a single oral gavage administration in each Phase.
Compound formulations were prepared in accordance with the following procedure: 257.0 mg of Compound C (4-[3-[4-[[(3S,4R)-3-fluoro-1-methyl-4-piperidyl]amino]-1-(2,2,2-trifluoroethyl)indol-2-yl]prop-2-ynylamino]-N-methyl-3-(methoxy)benzamide) was added to a pre-calibrated beaker, manually mixed with 1 mL of vehicle, stirred for 5 min to generate homogenous opaque suspension. An additional 40 mL of vehicle was added with manual mixing, and stirred for 5 min to generate a homogenous opaque suspension. An additional 9.218 mL of vehicle was added, and stirred overnight to generate a homogenous opaque suspension. 260.3 mg of Compound 3 (4-[3-[4-[[(3S,4R)-3-fluoro-1-methyl-4-piperidyl]amino]-1-(2,2,2-trifluoroethyl)indol-2-yl]prop-2-ynylamino]-N-methyl-3-(trideuteriomethoxy)benzamide) was added to a pre-calibrated beaker, manually mixed test article with 49.978 mL of vehicle, stirred for 30 min to generate a homogenous opaque suspension. Formulations were stored at room temperature for up to 15 days after preparation.
The detailed dosing and sampling regimens are described in the following table.
The concentrations of the compounds in all dosing solutions were determined by UPLC-UV [ACQUITY UPLC, ACQUITY UPLC BEH C8 1.7 m 2.1×100 mm Column, Mobile phase A: 0.1% FA & 2 mM HCOONH4 in water/ACN (v:v, 95:5), Mobile phase B: 0.1% FA & 2 mM HCOONH4 in ACN/water (v:v, 95:5)]. Three aliquots were taken from the bottom, middle and top regions of PO dosing solutions.
Plasma samples were collected at 0.25, 0.5, 1, 2, 4, 8, 12, 24 and 48 hours post-dose in Phases 1 and 2. Blank Plasma: Whole blood was collected from available stock animal into commercially available tubes containing K2-EDTA on wet ice and processed for plasma. The plasma was pooled to serve as blank monkey plasma. PK plasma: Approximately 0.5 mL of blood was collected at each time point via peripheral vessel from each study animal. The actual time for each sample collection was recorded. The deviations on sampling time were less than 1 minute for the time points pre-dose through 1 hour post-dose, and less than 5% of the nominal time for time points after 1 hour post-dose. All blood samples were transferred into commercial tube (Jiangsu Kangjian medical supplies Co., Ltd.) containing K2-EDTA (0.85-1.15 mg) and placed on wet ice until processed for plasma. Plasma samples were prepared within 1 hour of collection by centrifuging the blood samples at approximately 2-8° C., 3200×g for 10 minutes. Plasma samples of about 0.1 mL×2 aliquots (one for BA, and the other one for back up) for each time point were transferred into labeled polypropylene micro-centrifuge tubes and stored frozen in a freezer set to be maintained at −60° C. or lower until LC-MS/MS analysis. Concentrations of the compounds and metabolite in plasma samples were determined by a liquid chromatography tandem mass spectrometry (LC-MS/MS) method [Triple Quad 6500 Plus, ESI (+) ionization mode, MRM detection mode]. The plasma concentration of the compounds and metabolites in study animals was subjected to a non-compartmental pharmacokinetic analysis by using the Phoenix WinNonlin software (version 6.3 or above, Pharsight). […]

For the compound `[2H]C([2H])([2H])NC(=O)c1ccc(NCC#Cc2cc3c(N[C@@H]4CCN(C)C[C@@H]4F)cccc3n2CC(F)(F)F)c(OC)c1` [Compound 5, 4-[3-[4-[[(3S,4R)-3-fluoro-1-methyl-4-piperidyl]amino]-1-(2,2,2-trifluoroethyl)indol-2-yl]prop-2-ynylamino]-3-methoxy-N-(trideuteriomethyl)benzamide], the SC150 result on p53 Y220C is “++ (++ = 10 nM < SC150 < 50 nM)”.
Regarding `[2H]C([2H])([2H])NC(=O)c1ccc(NCC#Cc2cc3c(N[C@@H]4CCN(C)C[C@@H]4F)cccc3n2CC(F)(F)F)c(OC([2H])([2H])[2H])c1` [Compound 6, 4-[3-[4-[[(3S,4R)-3-fluoro-1-methyl-4-piperidyl]amino]-1-(2,2,2-trifluoroethyl)indol-2-yl]prop-2-ynylamino]-3-(trideuteriomethoxy)-N-(trideuteriomethyl)benzamide], the SC150 result at p53 Y220C is given as “+++ (+++ = 0 nM < SC150 < 10 nM)”.
Turning to `[2H]C([2H])([2H])Oc1cc(S(C)(=O)=O)ccc1NCC#Cc1cc2c(N[C@@H]3CCN(C([2H])([2H])[2H])C[C@@H]3F)cccc2n1CC(F)(F)F` (racemic) [Compound 4, rac-N-[(3S,4R)-3-fluoro-1-(trideuteriomethyl)-4-piperidyl]-2-[3-[4-methylsulfonyl-2-(trideuteriomethoxy)anilino]prop-1-ynyl]-1-(2,2,2-trifluoroethyl)indol-4-ylamine], the SC150 entry on p53 Y220C was “+++ (+++ = 0 nM < SC150 < 10 nM)”.
For `[2H]C([2H])([2H])Oc1cc(C(=O)NC)ccc1NCC#Cc1cc2c(N[C@@H]3CCN(C)C[C@@H]3F)cccc2n1CC(F)(F)F` [Compound 3, 4-[3-[4-[[(3S,4R)-3-fluoro-1-methyl-4-piperidyl]amino]-1-(2,2,2-trifluoroethyl)indol-2-yl]prop-2-ynylamino]-N-methyl-3-(trideuteriomethoxy)benzamide], in series [1], the “% of total analyte area, analyte Parent” value is given as 42.0%; the “AUC0-24 % Rel. to Cpd C value, analyte Parent” value is recorded as 160%; the AUC(0-inf) is 118 µg·h/mL; the AUCExtra stood at 0.599%. Besides, in series [1], the Cmax worked out at 10000 ± 4180 ng/mL, the Tmax was 2 h, the half-life is 6.37 h and the “increase in AUC over Compound C” value was “about 60%”. For the same compound, in series [1], the “reduction in glucuronidation metabolite (first named)” value stood at 70% and the “reduction in glucuronidation metabolite (second named)” value was determined as 10%. Moreover, the AUC(0-t) in series [1] (AUC0-24) came to 107 ± 29.2 µg·h/mL. The AUC(0-t) in series [1] (AUC0-24, analyte Parent) stood at 107 µg·h/mL. Also, in series [1] (AUC0-last), the AUC(0-t) stood at 118 µg·h/mL.
Take `[2H]C([2H])([2H])Oc1cc(S(C)(=O)=O)ccc1NCC#Cc1cc2c(N[C@H]3CCN(C)C[C@H]3F)cccc2n1CC(F)(F)F` (racemic) [Compound 10, Rac-N-((3R,4S)-3-fluoro-1-methylpiperidin-4-yl)-2-(3-((2-(methoxy-d3)-4-(methylsulfonyl)phenyl)amino)prop-1-yn-1-yl)-1-(2,2,2-trifluoroethyl)-1H-indol-4-amine]: the SC150 entry on p53 Y220C is reported as “+++ (+++ = 0 nM < SC150 < 10 nM)”.
